In patent US9506938B2, “Methods for measuring platelet reactivity of individuals treated with drug eluting stents” (ACCUMETRICS, INC., priority 2007, dated 2016):
Values joined by “and” are separate entries in the source; they are usually repeats but may differ in a detail not shown here. Identical values can stand only once. Like-named read-outs stand apart in the source and are kept apart here.

Assays:
[1] = test system: ADP-induced human platelet aggregation; settings: read-out: IC50 for the inhibition of ADP-induced human platelet aggregation; cited from earlier work
[2] = test system: patients undergoing PCI with DES
Procedure: Interventional strategy was at the discretion of the operator. Either intra-procedural unfractionated heparin (with a goal-activated clotting time>250 s) or bivalirudin was used during the procedure. All patients received SES, and they received aspirin 325 mg on the day of the procedure regardless of previous aspirin use.
“Technical success” was defined as a final diameter stenosis ≦30% and thrombolysis in myocardial infarction (TIMI) flow grade 3. Clinical endpoints measured were cardiovascular (CV) death, non-fatal myocardial infarction (MI), and stent thrombosis. “MI over follow-up” was defined as any typical rise and fall of cardiac biomarkers in the setting of clinical signs or symptoms consistent with cardiac ischaemia, following the American College of Cardiology definition (Cannon, et al., J. Am. Coll. Cardiol. (2001) 38:2114-2130). The Academic Research Consortium definitions were used for “stent thrombosis” (definite, probable, and possible) (Mauri, et al., N. Engl. J. Med. (2007) 356:1020-1029). “Subacute stent thrombosis” was defined as stent thrombosis occurring after discharge to 30 day follow-up, and late-stent thrombosis was defined as stent thrombosis occurring between 30 day and 6 month follow-ups.
The computer-based analysis program SPSS (Statistical Package for the Social Sciences, 12.0 for PC, SPSS Inc., Chicago, Ill., USA) was used for statistical calculations. […] Comparison of continuous variables was performed using Student's t-test. The χ^2 test was used to detect differences in categorical variables, and a Fisher's exact test was used when any expected cell count was <5 for a 2 by 2 table. The Kolmogorov-Smirnov test was used to test for normality. A receiver-operating characteristic (ROC) curve analysis was used to determine the ability of the VERIFYNOW™ P2Y12 assay to distinguish between patients with and without post-discharge events after PCI. The optimal cut-off point was calculated by determining the post-treatment PRU that provided the greatest sum of sensitivity and specificity. Bootstrap validation was performed using R software. Survival curves were generated using the Kaplan-Meier method, and the difference between curves was assessed by log-rank test. A P-value<0.05 was considered significant.

[3] = biological target: T1, P2Y12 receptor (Homo sapiens, UniProt Q9H244); settings: for percentage of inhibition: on clopidogrel at time of procedure; for percentage inhibition: clopidogrel naive, loaded with 600 mg
T1 sequence (Q9H244 whole entry): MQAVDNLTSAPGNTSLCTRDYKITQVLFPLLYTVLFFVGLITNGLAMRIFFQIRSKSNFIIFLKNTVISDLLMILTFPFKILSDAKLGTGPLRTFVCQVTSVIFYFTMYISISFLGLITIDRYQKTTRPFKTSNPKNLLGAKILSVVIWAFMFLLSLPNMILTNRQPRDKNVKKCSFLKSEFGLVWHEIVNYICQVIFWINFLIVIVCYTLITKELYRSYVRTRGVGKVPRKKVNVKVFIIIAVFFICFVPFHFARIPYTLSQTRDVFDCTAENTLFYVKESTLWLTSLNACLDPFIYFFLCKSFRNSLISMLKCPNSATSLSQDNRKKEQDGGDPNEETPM
Text: The VerifyNow™ System instrument is a turbidimetric-based optical detection system that measures platelet induced aggregation as an increase in light transmittance. The system includes an analyzer, disposable cartridge and controls. The cartridge contains reagents based on microparticle agglutination technology. The quality control system includes an electronic control, two levels of assayed “wet” controls (WQC), an in-cartridge humidity sensor, an in-packaging temperature indicator, and a test for concurrence of two assay channels. […] For use in the present methods the test cartridge of the system contains a lyophilized preparation comprising particles with passively bound GPIIb/IIIa receptor ligand, a composition of ADP and PGE1, and buffer. The patient sample is usually citrated whole blood, which is automatically dispensed from the blood collection tube into the cartridge by the analyzer, with no blood handling required by the user. The interaction is monitored by the infrared absorbency characteristics of the particles. As the particles interact with the platelets, the agglutination of the particles is measured through the optical system of the VerifyNow™ analyzer. The agglutination is detected as an increase in the transmission of infrared light through the sample. The reaction kinetics are analyzed and translated into “P2Y12 Response Units”, PRU.
Whole blood was obtained from the side port of the arterial sheath prior to anticoagulant or anti-thrombin therapy and by phlebotomy 12 hours post-PCI.
All patients received 325 mg uncoated aspirin the day of the procedure regardless of previous aspirin use. […] Either intra-procedural heparin (with a goal activated clotting time of >250 sec) or bivalirudin were administered during the procedure at operator discretion.
Patients were judged to be insulin resistant if their Homeostasis Model Assessment index, calculated as: [fasting insulin (μU/mL)]*[fasting glucose (mg/dl)]/405, was >3.0 or if they had diabetes requiring medication.

[4] = biological target: T1, P2Y12 receptor; test: VerifyNow P2Y12 assay, post-treatment platelet reactivity (PRU) in patients with sirolimus-eluting stents (Example 3); type: in vivo; parameters: The patient sample is usually citrated whole blood; endogenous in cells; host or cells: platelets in citrated whole blood of patients
Procedure: Patients on clopidogrel therapy or who were clopidogrel naïve were eligible for inclusion. […] The assay contains […] and 22 nM prostaglandin E1 to reduce the activation contribution from ADP binding to P2Y1 receptors. […] With this assay, a higher PRU reflects greater ADP-mediated platelet reactivity. The mean coefficient of variation of test precision has been reported to be 3.2% in patients with coronary artery disease. Interventional strategy was at the discretion of the operator.

[5] = test system: platelet aggregation; settings: Muller et al. 2003; cited from earlier work
[6] = after discharge, 6 month follow-up, all patients
[7] = clopidogrel for minimum 3 months, high reactivity (n = 121)
[8] = clopidogrel for minimum 3 months, lower reactivity (n = 252)
[9] = clopidogrel for minimum 3 months, overall group (n = 373)
[10] = clopidogrel through 6 month follow-up, high reactivity (n = 108)
[11] = clopidogrel through 6 month follow-up, lower reactivity (n = 258)
[12] = clopidogrel through 6 month follow-up, overall group (n = 317)
[13] = patients with high post-treatment reactivity
[14] = patients without high post-treatment reactivity

CCCCC[C@H](O)/C=C/[C@H]1[C@H](O)CC(=O)[C@@H]1CCCCCCC(=O)O [PGE1, prostaglandin E1]
IC50 [1]: ~40 nM

COC(=O)[C@H](c1ccccc1Cl)N1CCc2sccc2C1 [clopidogrel]
overall rate of late-stent thrombosis ([2]; 30 day to 6 month follow-up): 0.8%
Non-fatal MI [2, 6]: 1.3%
combined endpoint of CV death, non-fatal MI, or stent thrombosis [2, 6]: 2.6%
episodes of stent thrombosis [2, 6]: 1.6%
Non-fatal MI [2, 7]: 2 (1.7) n (%)
Stent thrombosis [2, 7]: 5 (4.1) n (%)
Non-fatal MI [2, 8]: 2 (0.8) n (%)
Stent thrombosis [2, 8]: 0 n (%)
Non-fatal MI [2, 9]: 4 (1.1) n (%)
Stent thrombosis [2, 9]: 5 (1.3) n (%)
Non-fatal MI [2, 10]: 2 (1.9) n (%)
Stent thrombosis [2, 10]: 5 (4.6) n (%)
Non-fatal MI [2, 11]: 2 (1.0) n (%)
Stent thrombosis [2, 11]: 0 n (%)
Non-fatal MI [2, 12]: 4 (1.3) n (%)
Stent thrombosis [2, 12]: 5 (1.6) n (%)
overall rate of subacute stent thrombosis ([2]; discharge to 30 day follow-up): 0.8%
rate of CV mortality [2, 13]: 2.8%
rate of all-cause death, non-fatal MI, or stent thrombosis [2, 13]: 6.5%
rate of any stent thrombosis [2, 13]: 4.6%
rate of combined endpoint of CV death, non-fatal MI, or stent thrombosis [2, 13]: 6.5%
rate of definite or probable stent thrombosis [2, 13]: 2.8%
survival rate free from the combined endpoint of CV death, non-fatal MI, or stent thrombosis [2, 13]: 91.4%
rate of CV mortality [2, 14]: 0%
rate of all-cause death, non-fatal MI, or stent thrombosis [2, 14]: 1.4%
rate of any stent thrombosis [2, 14]: 0%
rate of combined endpoint of CV death, non-fatal MI, or stent thrombosis [2, 14]: 1.0%
rate of definite or probable stent thrombosis [2, 14]: 0%
survival rate free from the combined endpoint of CV death, non-fatal MI, or stent thrombosis [2, 14]: 99.0%
percentage of inhibition ([3]; Patient No. 1, acute thrombosis 80 minutes after PCI): 0%
percentage of inhibition ([3]; Patient No. 2, sub-acute thrombosis 6 days following PCI): 0%
percentage inhibition ([3]; Patient No. 3, sub-acute thrombosis 34 days following PCI): 0%
percentage inhibition ([3]; Patient No. 4, sub-acute thrombosis 8 days following PCI): 44%
share of patients undergoing PCI with clopidogrel-induced platelet inhibition <10% ([3]; point-of-care assay, N = 280): one quarter
mean post-treatment reactivity ([4]; all patients, n = 380): 184±85 PRU
post-treatment reactivity ([4]; clopidogrel-naive patients, 12 h after 600 mg loading dose): 183±94 PRU
post-treatment reactivity of the patients who had stent thrombosis while taking antiplatelet therapy ([4]; individual patients): 283 PRU and 292 PRU and 236 PRU and 244 PRU and 271 PRU
post-treatment reactivity ([4]; patients on previous clopidogrel therapy): 186±73 PRU
platelet reactivity ([4]; patients with adverse events): 242 PRU
platelet reactivity ([4]; patients without adverse events): 186 PRU
patients receiving the drug who did not achieve the expected platelet aggregation inhibition [5]: at least 10%

bivalirudin
post-treatment reactivity on clopidogrel by intra-procedural anticoagulant ([4]; patients receiving intra-procedural heparin or bivalirudin): 184±84 PRU
